Format in all cases: biochemical
Assay [1] concerns the target CDK6/CCND1 (Homo sapiens, UniProt Q00534). Description: CDK6 homogeneous time-resolved fluorescence (HTRF) kinase assay. The conditions noted are these: CDK6/CCND. Put shortly: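 Recombinant CDK6/CCND1 (1 nM final) was preincubated with compound for 20 min at 23 °C in HEPES buffer with MgCl2, EGTA, DTT and Tween 20. Kinase reaction then ran 60 min at 23 °C with 1 mM ATP and 50 nM ULight-4E-BP1 (Thr37/46) peptide, and was stopped with EDTA.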

The target in assay [2] is CDK2/CCNE1 (Homo sapiens, UniProt P24941). Description: CDK2 homogeneous time-resolved fluorescence (HTRF) kinase assay. The conditions noted are these: CDK2/CCNE. An outline of the steps: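 TR-FRET read-out (665 nm, or 665/615 ratio) of Eu-antibody detection of phospho-4E-BP1 (Thr37/46) ULight peptide. Enzyme 3 nM, ATP 1 mM, peptide 50 nM, 1% DMSO; 60 min reaction at 23 °C after 20 min compound preincubation. IC50 from 11-point half-log titrations, top typically 10 μM.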

The target in assay [3] is CDK4/CCND3 (Homo sapiens, UniProt P11802). Description: CDK4 homogeneous time-resolved fluorescence (HTRF) kinase assay. The following applies: CDK4/CCND. Put shortly:
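IC50 values were derived from 11-point half-log dilutions, usually starting at 10 μM. Compound was first held for 20 min at 23 °C with 1.5 nM CDK4/CCND3. 1 mM ATP and 50 nM ULight-eIF4E-BP1 (Thr37/46) substrate were then added for 60 min, and the TR-FRET 665 nm signal was measured after EDTA stop and Eu-anti-phospho-4E-BP1 detection.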

For assay [4], the target named is CDK1/CCNB1 (Homo sapiens, UniProt P06493). Description: CDK1 homogeneous time-resolved fluorescence (HTRF) kinase assay. The conditions noted are these: CDK1/CCNB. Put shortly: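 Compounds, titrated 11 points in half-log steps typically from 10 μM, were incubated with enzyme for 20 min before ATP (1 mM) and ULight-labelled eIF4E-binding protein 1 peptide (50 nM) started a 60-min reaction at 23 °C. Phosphopeptide was detected by europium-antibody TR-FRET and IC50 values were derived.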
CDK1/CCNB1, sequence (P06493 whole entry): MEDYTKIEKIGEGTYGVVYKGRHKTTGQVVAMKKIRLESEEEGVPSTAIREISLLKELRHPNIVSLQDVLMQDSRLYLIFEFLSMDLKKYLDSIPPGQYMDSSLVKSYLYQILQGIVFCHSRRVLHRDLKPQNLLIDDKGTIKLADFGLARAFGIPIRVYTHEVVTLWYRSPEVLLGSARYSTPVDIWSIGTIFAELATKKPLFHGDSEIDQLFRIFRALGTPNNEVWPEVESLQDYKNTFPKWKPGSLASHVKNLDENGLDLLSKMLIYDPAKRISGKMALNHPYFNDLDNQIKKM
CDK1/CCNB1, sequence (P14635 whole entry partner): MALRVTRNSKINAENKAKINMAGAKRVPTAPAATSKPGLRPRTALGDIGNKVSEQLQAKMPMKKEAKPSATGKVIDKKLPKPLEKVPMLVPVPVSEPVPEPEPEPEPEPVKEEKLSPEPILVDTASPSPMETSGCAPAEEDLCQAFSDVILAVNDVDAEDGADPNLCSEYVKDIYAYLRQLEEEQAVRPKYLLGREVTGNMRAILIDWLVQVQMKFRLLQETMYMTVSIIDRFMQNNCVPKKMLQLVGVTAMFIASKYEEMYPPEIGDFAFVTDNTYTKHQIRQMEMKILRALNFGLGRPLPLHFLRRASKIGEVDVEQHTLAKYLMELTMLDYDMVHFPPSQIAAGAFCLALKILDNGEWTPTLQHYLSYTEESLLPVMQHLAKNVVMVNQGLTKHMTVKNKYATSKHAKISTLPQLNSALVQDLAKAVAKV

The mark [5] stands for this setting: x = IC50 >250 nM, read-out: CDK6/CCND IC50 (>250 nM column).
The mark [6] stands for this setting: x = IC50 <25 nM, read-out: CDK2/CCNE IC50 (<25 nM).
The mark [7] stands for this setting: x = IC50 >250 nM, read-out: CDK4/CCND IC50 (>250 nM column).
The mark [8] stands for this setting: x = IC50 >250 nM, read-out: CDK1/CCNB IC50 (>250 nM column).
Setting [9] is: x = IC50 25-250 nM, read-out: CDK1/CCNB IC50 (25-250 nM).

Read-outs that look alike come from different tables or passages of the source.

CDK4/CCND3, sequence (P11802 whole entry): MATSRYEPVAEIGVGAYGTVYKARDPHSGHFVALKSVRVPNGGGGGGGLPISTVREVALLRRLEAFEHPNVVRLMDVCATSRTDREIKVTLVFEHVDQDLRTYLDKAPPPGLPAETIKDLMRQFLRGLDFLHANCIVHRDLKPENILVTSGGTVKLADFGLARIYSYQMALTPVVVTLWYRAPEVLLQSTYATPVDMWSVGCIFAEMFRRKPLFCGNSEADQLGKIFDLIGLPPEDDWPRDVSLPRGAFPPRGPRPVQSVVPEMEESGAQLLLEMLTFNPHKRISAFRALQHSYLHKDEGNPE
CDK4/CCND3, sequence (P30281 whole entry partner): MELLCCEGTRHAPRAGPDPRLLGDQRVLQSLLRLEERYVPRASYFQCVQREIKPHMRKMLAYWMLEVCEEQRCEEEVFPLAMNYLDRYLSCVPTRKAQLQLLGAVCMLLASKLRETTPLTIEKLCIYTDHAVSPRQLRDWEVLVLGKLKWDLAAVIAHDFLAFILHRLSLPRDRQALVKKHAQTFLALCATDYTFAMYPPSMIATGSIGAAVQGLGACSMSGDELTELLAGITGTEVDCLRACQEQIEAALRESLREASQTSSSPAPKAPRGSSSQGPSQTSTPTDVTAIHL
CDK6/CCND1, sequence (Q00534 whole entry): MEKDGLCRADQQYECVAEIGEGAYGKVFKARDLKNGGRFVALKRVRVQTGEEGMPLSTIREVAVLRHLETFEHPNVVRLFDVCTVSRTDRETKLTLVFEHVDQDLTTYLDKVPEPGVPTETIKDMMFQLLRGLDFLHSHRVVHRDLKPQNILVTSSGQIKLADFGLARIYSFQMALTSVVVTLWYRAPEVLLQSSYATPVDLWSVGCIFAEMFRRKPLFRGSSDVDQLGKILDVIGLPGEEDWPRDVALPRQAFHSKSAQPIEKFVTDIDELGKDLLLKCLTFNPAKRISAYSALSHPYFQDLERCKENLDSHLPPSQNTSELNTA
CDK6/CCND1, sequence (P24385 whole entry partner): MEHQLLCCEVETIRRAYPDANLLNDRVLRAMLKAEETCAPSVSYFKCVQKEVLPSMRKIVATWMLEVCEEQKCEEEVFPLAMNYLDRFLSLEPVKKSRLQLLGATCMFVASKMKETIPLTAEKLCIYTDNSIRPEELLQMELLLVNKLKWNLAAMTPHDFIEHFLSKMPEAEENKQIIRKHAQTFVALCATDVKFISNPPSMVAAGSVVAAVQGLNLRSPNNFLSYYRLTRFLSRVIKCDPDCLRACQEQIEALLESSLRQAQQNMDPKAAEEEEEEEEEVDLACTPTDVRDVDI

As for `CCC1(CC)C(=O)Nc2cc(C#Cc3nccc4cnc(Nc5ccc(S(=O)(=O)C(C)C)cc5C)cc34)ccc21` [Ex 369, 3,3-diethyl-6-((7-((4-(isopropylsulfonyl)-2-methylphenyl)amino)-2,6-naphthyridin-1-yl)ethynyl)indolin-2-one], the IC50 in assay [1] (setting [5]) was over 250 nM; in assay [2] (setting [6]), under 25 nM; in assay [3] (setting [7]), over 250 nM; in assay [4] (setting [8]), over 250 nM.
For the compound `CCC1(CC)C(=O)Nc2cc(C#Cc3nccc4cnc(Nc5ccc(S(=O)(=O)CC)cc5C)cc34)ccc21` [Ex 370, 3,3-diethyl-6-((7-((4-(ethylsulfonyl)-2-methylphenyl)amino)-2,6-naphthyridin-1-yl)ethynyl)indolin-2-one], the IC50 was over 250 nM in assay [1] (setting [5]), under 25 nM in assay [2] (setting [6]), over 250 nM in assay [3] (setting [7]) and over 250 nM in assay [4] (setting [8]).
`CCC1(CC)C(=O)Nc2cc(C#Cc3nccc4cnc(Nc5ccc(S(=O)(=O)CC)cc5OC)cc34)ccc21` [Ex 371, 3,3-diethyl-6-((7-((4-(ethylsulfonyl)-2-methoxyphenyl)amino)-2,6-naphthyridin-1-yl)ethynyl)indolin-2-one]: the IC50 is over 250 nM in assay [1] (setting [5]), under 25 nM in assay [2] (setting [6]), over 250 nM in assay [3] (setting [7]) and over 250 nM in assay [4] (setting [8]).
On to `COc1cc(S(C)(=O)=O)ccc1Nc1cc2c(C#Cc3ccc4c(c3)NC(=O)C43CC3)nccc2cn1` [Ex 375, 6'-((7-((2-methoxy-4-(methylsulfonyl)phenyl)amino)-2,6-naphthyridin-1-yl)ethynyl)spiro[cyclopropane-1,3'-indolin]-2'-one], for which the IC50 in assay [1] (setting [5]) is over 250 nM; in assay [2] (setting [6]), under 25 nM; in assay [3] (setting [7]) it was over 250 nM; in assay [4] (setting [8]) it was over 250 nM.
On to `CC1(C)C(=O)Nc2cc(C#Cc3nccc4cnc(Nc5ccc(S(C)(=O)=O)c(O)c5)cc34)ccc21` [Ex 379, 6-((7-((3-hydroxy-4-(methylsulfonyl)phenyl)amino)-2,6-naphthyridin-1-yl)ethynyl)-3,3-dimethylindolin-2-one], for which the IC50 in assay [1] (setting [5]) was over 250 nM; in assay [2] (setting [6]), under 25 nM; in assay [3] (setting [7]), over 250 nM; in assay [4] (setting [8]) it was over 250 nM.
For `CC1(C)C(=O)Nc2cc(C#Cc3nccc4cnc(Nc5ccc(S(C)(=O)=O)cc5O)cc34)ccc21` [Ex 380, 6-((7-((2-hydroxy-4-(methylsulfonyl)phenyl)amino)-2,6-naphthyridin-1-yl)ethynyl)-3,3-dimethylindolin-2-one], the IC50 in assay [1] (setting [5]) was over 250 nM; in assay [2] (setting [6]), under 25 nM; in assay [3] (setting [7]), over 250 nM; in assay [4] (setting [8]), over 250 nM.
Turning to `Cc1cc(S(C)(=O)=O)ccc1Nc1cc2c(C#Cc3ccc4c(c3)NC(=O)C43CCC3)nccc2cn1` [Ex 381, 6'-((7-((2-methyl-4-(methylsulfonyl)phenyl)amino)-2,6-naphthyridin-1-yl)ethynyl)spiro[cyclobutane-1,3'-indolin]-2'-one], the IC50 in assay [1] (setting [5]) was over 250 nM; in assay [2] (setting [6]), under 25 nM; in assay [3] (setting [7]) it was over 250 nM; in assay [4] (setting [8]), over 250 nM.
On to `O=C1Nc2cc(C#Cc3nccc4cnc(Nc5ccc(S(=O)(=O)C6CC6)cc5)cc34)ccc2C12CCC2` [Ex 385, 6'-((7-((4-(cyclopropylsulfonyl)phenyl)amino)-2,6-naphthyridin-1-yl)ethynyl)spiro[cyclobutane-1,3'-indolin]-2'-one], for which the IC50 in assay [1] (setting [5]) was over 250 nM; in assay [2] (setting [6]), under 25 nM; in assay [3] (setting [7]), over 250 nM; in assay [4] (setting [9]) it was 25 to 250 nM.
On to `CC(C)S(=O)(=O)c1ccc(Nc2cc3c(C#Cc4ccc5c(c4)NC(=O)C54CCC4)nccc3cn2)cc1` [Ex 386, 6'-((7-((4-(isopropylsulfonyl)phenyl)amino)-2,6-naphthyridin-1-yl)ethynyl)spiro[cyclobutane-1,3'-indolin]-2'-one], for which the IC50 in assay [1] (setting [5]) was over 250 nM; in assay [2] (setting [6]), under 25 nM; in assay [3] (setting [7]), over 250 nM; in assay [4] (setting [8]) it was over 250 nM.
Regarding `O=C1Nc2cc(C#Cc3nccc4cnc(Nc5ccc(S(=O)(=O)C6CCC6)cc5)cc34)ccc2C12CCC2` [Ex 387, 6'-((7-((4-(cyclobutylsulfonyl)phenyl)amino)-2,6-naphthyridin-1-yl)ethynyl)spiro[cyclobutane-1,3'-indolin]-2'-one], the IC50 in assay [1] (setting [5]) is over 250 nM; in assay [2] (setting [6]), under 25 nM; in assay [3] (setting [7]), over 250 nM; in assay [4] (setting [9]), 25 to 250 nM.
For the compound `O=C1Nc2cc(C#Cc3nccc4cnc(Nc5ccc(S(=O)(=O)C6CC6)cc5)cc34)ccc2C12CC2` [Ex 392, 6'-((7-((4-(cyclopropylsulfonyl)phenyl)amino)-2,6-naphthyridin-1-yl)ethynyl)spiro[cyclopropane-1,3'-indolin]-2'-one], the IC50 was over 250 nM in assay [1] (setting [5]), under 25 nM in assay [2] (setting [6]), over 250 nM in assay [3] (setting [7]) and 25 to 250 nM in assay [4] (setting [9]).
Take `CC(C)S(=O)(=O)c1ccc(Nc2cc3c(C#Cc4ccc5c(c4)NC(=O)C54CC4)nccc3cn2)cc1` [Ex 393, 6'-((7-((4-(isopropylsulfonyl)phenyl)amino)-2,6-naphthyridin-1-yl)ethynyl)spiro[cyclopropane-1,3'-indolin]-2'-one]: the IC50 is over 250 nM in assay [1] (setting [5]), under 25 nM in assay [2] (setting [6]), over 250 nM in assay [3] (setting [7]) and 25 to 250 nM in assay [4] (setting [9]).
As for `O=C1Nc2cc(C#Cc3nccc4cnc(Nc5ccc(S(=O)(=O)C6CCC6)cc5)cc34)ccc2C12CC2` [Ex 394, 6'-((7-((4-(cyclobutylsulfonyl)phenyl)amino)-2,6-naphthyridin-1-yl)ethynyl)spiro[cyclopropane-1,3'-indolin]-2'-one], the IC50 in assay [1] (setting [5]) was over 250 nM; in assay [2] (setting [6]), under 25 nM; in assay [3] (setting [7]) it was over 250 nM; in assay [4] (setting [9]), 25 to 250 nM.
In the case of `CCC1(CC)C(=O)Nc2cc(C#Cc3nccc4cnc(Nc5ccc(S(C)(=O)=O)cc5OC)cc34)ccc21` [Ex 396, 3,3-diethyl-6-((7-((2-methoxy-4-(methylsulfonyl)phenyl)amino)-2,6-naphthyridin-1-yl)ethynyl)indolin-2-one], the IC50 in assay [1] (setting [5]) was over 250 nM; in assay [2] (setting [6]), under 25 nM; in assay [3] (setting [7]), over 250 nM; in assay [4] (setting [8]), over 250 nM.
In the case of `CCS(=O)(=O)c1ccc(Nc2cc3c(C#Cc4ccc5c(c4)NC(=O)C54CC4)nccc3cn2)cc1` [Ex 397, 6'-((7-((4-(ethylsulfonyl)phenyl)amino)-2,6-naphthyridin-1-yl)ethynyl)spiro[cyclopropane-1,3'-indolin]-2'-one], the IC50 in assay [1] (x = IC50 25-250 nM, read-out: CDK6/CCND IC50 (25-250 nM)) is 25 to 250 nM; in assay [2] (setting [6]), under 25 nM; in assay [3] (x = IC50 25-250 nM, read-out: CDK4/CCND IC50 (25-250 nM)), 25 to 250 nM; in assay [4] (setting [9]), 25 to 250 nM.
In the case of `Nc1ncccc1C#Cc1nccc2cnc(Nc3ccc(S(=O)(=O)C4CC4)cc3)cc12` [Ex 399, 5-((2-aminopyridin-3-yl)ethynyl)-N-(4-(cyclopropylsulfonyl)phenyl)-2,6-naphthyridin-3-amine], the IC50 in assay [1] (setting [5]) was over 250 nM; in assay [2] (setting [6]) it was under 25 nM; in assay [3] (setting [7]), over 250 nM; in assay [4] (setting [8]), over 250 nM.
Take `CC(C)S(=O)(=O)c1ccc(Nc2cc3c(C#Cc4cccnc4N)nccc3cn2)cc1` [Ex 400, 5-((2-aminopyridin-3-yl)ethynyl)-N-(4-(isopropylsulfonyl)phenyl)-2,6-naphthyridin-3-amine]: the IC50 in assay [1] (setting [5]) was over 250 nM; in assay [2] (x = IC50 25-250 nM, read-out: CDK2/CCNE IC50 (25-250 nM)), 25 to 250 nM; in assay [3] (setting [7]), over 250 nM; in assay [4] (setting [8]), over 250 nM.
On to `CCS(=O)(=O)c1ccc(Nc2cc3c(C#Cc4cccnc4N)nccc3cn2)cc1` [Ex 401, 5-((2-aminopyridin-3-yl)ethynyl)-N-(4-(ethylsulfonyl)phenyl)-2,6-naphthyridin-3-amine], for which the IC50 is over 250 nM in assay [1] (setting [5]), under 25 nM in assay [2] (setting [6]), over 250 nM in assay [3] (setting [7]) and over 250 nM in assay [4] (setting [8]).
For the compound `CCS(=O)(=O)c1ccc(Nc2cc3c(C#Cc4ccc5c(c4)NC(=O)C54CCC4)nccc3cn2)cc1` [Ex 405, 6'-((7-((4-(ethylsulfonyl)phenyl)amino)-2,6-naphthyridin-1-yl)ethynyl)spiro[cyclobutane-1,3'-indolin]-2'-one], the IC50 was over 250 nM in assay [1] (setting [5]), under 25 nM in assay [2] (setting [6]), over 250 nM in assay [3] (setting [7]) and 25 to 250 nM in assay [4] (setting [9]).
